Among the data in US20260042753A1 (Merck Patent GmbH, priority 2019, published 2026) are IC50 values, retold here.

For test [1], the target named is c-Kit(V654A) (Homo sapiens, UniProt P10721, V654A). Description: c-Kit(V654A) assay. Format: biochemical. The note with it: Table 1; 200 μM ATP. A digest of the protocol: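 Radiometric filter-binding read-out: after 3% phosphoric acid stop, peptide-incorporated 33P on filtermat scintillation-counted. Enzyme: human c-Kit V654A, residues 544–end, N-terminal GST fusion.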

The target of test [2] is mutant cKIT (560-576 and V654A) in GIST430/654 cell line (Homo sapiens (Human), UniProt P10721, DEL560-576/V654A). In words: Cellular testing of cKIT mutant inhibitors: phospho-Y307-cKIT Luminex assay in GIST430/654 cells. It counts as cell-based. The note with it: Table 1; cKIT autophosphorylation, compounds 45 min; read-out: GIST 430/654 IC50. In short, it runs like this:
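Autophosphorylation of mutant cKIT at Y307 was quantified by a Luminex bead sandwich assay (total-cKIT capture, phosphospecific detection) after 45 min compound exposure in GIST430/654 cells, cultured in medium containing 100 nM imatinib. Signals were normalised to solvent (0.3% DMSO) controls and dose-response curves fitted for IC50.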

mutant cKIT (560-576 and V654A) in GIST430/654 cell line, sequence (P10721 other isoform, or with tags, fused parts or gaps V654A/del 1-25/del 560-576 limits assumed): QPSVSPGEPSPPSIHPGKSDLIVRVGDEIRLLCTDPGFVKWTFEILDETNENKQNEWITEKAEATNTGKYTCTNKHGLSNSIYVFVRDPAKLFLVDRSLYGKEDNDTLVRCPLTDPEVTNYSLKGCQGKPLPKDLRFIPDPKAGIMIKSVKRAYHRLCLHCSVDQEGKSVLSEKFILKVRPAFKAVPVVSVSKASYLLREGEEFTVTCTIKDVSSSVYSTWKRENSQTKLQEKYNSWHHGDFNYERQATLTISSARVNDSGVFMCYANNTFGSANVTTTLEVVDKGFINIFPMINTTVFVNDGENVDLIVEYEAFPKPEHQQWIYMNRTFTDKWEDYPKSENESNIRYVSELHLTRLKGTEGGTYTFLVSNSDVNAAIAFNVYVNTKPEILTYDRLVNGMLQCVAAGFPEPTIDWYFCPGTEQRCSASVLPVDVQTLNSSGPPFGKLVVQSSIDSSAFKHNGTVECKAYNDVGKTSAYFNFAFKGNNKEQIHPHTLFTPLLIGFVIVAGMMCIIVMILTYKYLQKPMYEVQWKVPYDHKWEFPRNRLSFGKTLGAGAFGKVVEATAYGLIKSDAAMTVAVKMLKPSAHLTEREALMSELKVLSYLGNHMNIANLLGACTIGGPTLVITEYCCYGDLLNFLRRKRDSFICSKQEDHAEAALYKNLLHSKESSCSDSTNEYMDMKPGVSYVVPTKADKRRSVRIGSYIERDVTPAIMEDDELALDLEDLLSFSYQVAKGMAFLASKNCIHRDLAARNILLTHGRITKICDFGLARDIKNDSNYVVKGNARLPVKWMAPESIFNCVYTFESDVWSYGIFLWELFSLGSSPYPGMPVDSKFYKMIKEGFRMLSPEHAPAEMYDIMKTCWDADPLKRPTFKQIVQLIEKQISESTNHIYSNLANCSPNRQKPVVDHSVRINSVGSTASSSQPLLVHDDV

With `COCCOc1cc2[nH]nc(-c3cc(-c4ccc(C(=O)N5CCC56COC6)c(F)c4)no3)c2cc1F` [A170, (2-fluoro-4-{5-[5-fluoro-6-(2-methoxy-ethoxy)-1H-indazol-3-yl]-isoxazol-3-yl}-phenyl)-(6-oxa-1-aza-spiro[3.3]hept-1-yl)-methanone], the values for the IC50 in test [1] and in test [2] were 2.6 nM and 120 nM, respectively.
As for `COCCOc1cc2[nH]nc(-c3cc(-c4ccc(C(=O)N5CC(N6CCOCC6)C5)c(C)c4)no3)c2cc1F` [A171, (4-{5-[5-fluoro-6-(2-methoxy-ethoxy)-1H-indazol-3-yl]-isoxazol-3-yl}-2-methyl-phenyl)-(3-morpholin-4-yl-azetidin-1-yl)-methanone], the IC50 in test [1] was found to be 1.4 nM; in test [2] it was 63 nM.
Turning to `COCCOc1cc2[nH]nc(-c3cc(-c4ccc(C(=O)N5CC(c6ccncn6)C5)cc4)no3)c2cc1F` [A172, 5-fluoro-6-(2-methoxyethoxy)-3-(3-{4-[3-(pyrimidin-4-yl)azetidine-1-carbonyl]phenyl}-1,2-oxazol-5-yl)-1H-indazole], the IC50 in test [1] is 0.89 nM; in test [2], 54 nM.
Consider `COCCOc1cc2[nH]nc(-c3cc(-c4ccc(C(=O)N5CC(c6ccnc(C)n6)C5)cc4)no3)c2cc1F` [A173, 5-fluoro-6-(2-methoxyethoxy)-3-(3-{4-[3-(2-methylpyrimidin-4-yl)azetidine-1-carbonyl]phenyl}-1,2-oxazol-5-yl)-1H-indazole], for which the IC50 was found to be 1.1 nM in test [1] and 30 nM in test [2].
For `COCCOc1cc2[nH]nc(-c3cc(-c4ccc(C(=O)N5CCN(C6COC6)CC5C)cc4)no3)c2cc1F` (stereo not shown) [A174, 5-fluoro-6-(2-methoxyethoxy)-3-(3-{4-[2-methyl-4-(oxetan-3-yl)piperazine-1-carbonyl]phenyl}-1,2-oxazol-5-yl)-1H-indazole], in that order: 1.3 nM and 35 nM.
`COCCOc1cc2[nH]nc(-c3cc(-c4ccc(C(=O)N5CCN(C6CCOC6)CC5)cc4)no3)c2cc1F` (stereo not shown) [A175, 5-fluoro-6-(2-methoxyethoxy)-3-(3-{4-[4-(oxolan-3-yl)piperazine-1-carbonyl]phenyl}-1,2-oxazol-5-yl)-1H-indazole]: the IC50 in test [1] was 0.86 nM; in test [2], 43 nM.
For `COCCOc1cc2[nH]nc(-c3cc(-c4ccc(C(=O)N5CCC6(CC5)CN(C)C6)cc4)no3)c2cc1F` [A176, 7-(4-{5-[5-fluoro-6-(2-methoxyethoxy)-1H-indazol-3-yl]-1,2-oxazol-3-yl}benzoyl)-2-methyl-2,7-diazaspiro[3.5]nonane], the IC50 in test [1] was found to be 2.6 nM; in test [2] it was 320 nM.
For the compound `COCCOc1cc2[nH]nc(-c3cc(-c4ccc(C(=O)N5CC(N6CCCCC6)C5)cc4)no3)c2cc1F` [A177, 5-fluoro-6-(2-methoxyethoxy)-3-(3-{4-[3-(piperidin-1-yl)azetidine-1-carbonyl]phenyl}-1,2-oxazol-5-yl)-1H-indazole], the IC50 in test [1] turned out to be 1 nM; in test [2] it was 65 nM.
In the case of `COCCOc1cc2[nH]nc(-c3cc(-c4ccc(C(=O)N5CC(N6CCCC6)C5)cc4)no3)c2cc1F` [A178, 5-fluoro-6-(2-methoxyethoxy)-3-(3-{4-[3-(pyrrolidin-1-yl)azetidine-1-carbonyl]phenyl}-1,2-oxazol-5-yl)-1H-indazole], the IC50 came to 1.1 nM in test [1] and 62 nM in test [2].
For `COCCOc1cc2[nH]nc(-c3cc(-c4ccc(C(=O)N5CCN(CC6CC6)CC5)cc4)no3)c2cc1F` [A179, 3-(3-{4-[4-(cyclopropylmethyl)piperazine-1-carbonyl]phenyl}-1,2-oxazol-5-yl)-5-fluoro-6-(2-methoxyethoxy)-1H-indazole], in that order: 0.59 nM and 85 nM.
For `COCCOc1cc2[nH]nc(-c3cc(-c4ccc(C(=O)N5CCO[C@H](C)C5)cc4)no3)c2cc1F` [A180, 5-fluoro-6-(2-methoxyethoxy)-3-(3-{4-[(2R)-2-methylmorpholine-4-carbonyl]phenyl}-1,2-oxazol-5-yl)-1H-indazole], in that order: 2 nM and 66 nM.
The matching figures for `COCCOc1cc2[nH]nc(-c3cc(-c4ccc(C(=O)N5CC(C)(N(C)C)C5)cc4)no3)c2cc1F` [A181, 1-(4-{5-[5-fluoro-6-(2-methoxyethoxy)-1H-indazol-3-yl]-1,2-oxazol-3-yl}benzoyl)-N,N,3-trimethylazetidin-3-amine]: 1 nM and 40 nM.
As to `COCCOc1cc2[nH]nc(-c3cc(-c4ccc(C(=O)N5C6COCC5C6)cc4)no3)c2cc1F` [A182, 5-fluoro-6-(2-methoxyethoxy)-3-[3-(4-{3-oxa-6-azabicyclo[3.1.1]heptane-6-carbonyl}phenyl)-1,2-oxazol-5-yl]-1H-indazole], the IC50 in test [1] was 0.94 nM; in test [2], 38 nM.
For `COCCOc1cc2[nH]nc(-c3cc(-c4ccc(C(=O)N5Cc6ccncc6C5)cc4)no3)c2cc1F` [A183, 5-fluoro-6-(2-methoxyethoxy)-3-[3-(4-{1H,2H,3H-pyrrolo[3,4-c]pyridine-2-carbonyl}phenyl)-1,2-oxazol-5-yl]-1H-indazole], the IC50 in test [1] came to 0.55 nM; in test [2] it was 18 nM.
Turning to `COCCOc1cc2[nH]nc(-c3cc(-c4ccc(C(=O)N5CCOC[C@@H]5CS(C)(=O)=O)cc4)no3)c2cc1F` [A184, (4-{5-[5-fluoro-6-(2-methoxy-ethoxy)-1H-indazol-3-yl]-isoxazol-3-yl}-phenyl)-((R)-3-methanesulfonylmethyl-morpholin-4-yl)-methanone], the IC50 amounted to 1.1 nM in test [1] and 120 nM in test [2].
Consider `COCCOc1cc2[nH]nc(-c3cc(-c4ccc(C(=O)N5CCN([C@@H]6CCOC6)CC5)cc4)no3)c2cc1F` [A185, 5-fluoro-6-(2-methoxyethoxy)-3-[3-(4-{4-[(3R)-oxolan-3-yl]piperazine-1-carbonyl}phenyl)-1,2-oxazol-5-yl]-1H-indazole], for which the IC50 in test [1] was determined as 1.1 nM; in test [2] it was 60 nM.
The matching figures for `COCCOc1cc2[nH]nc(-c3cc(-c4ccc(C(=O)N5CCN([C@H]6CCOC6)CC5)cc4)no3)c2cc1F` [A186, 5-fluoro-6-(2-methoxyethoxy)-3-[3-(4-{4-[(3S)-oxolan-3-yl]piperazine-1-carbonyl}phenyl)-1,2-oxazol-5-yl]-1H-indazole]: 1.1 nM and 48 nM.
With `COCCOc1cc2[nH]nc(-c3cc(-c4ccc(C(=O)N5CC(N6CC7(COC7)C6)C5)cc4)no3)c2cc1F` [A187, 5-fluoro-6-(2-methoxyethoxy)-3-f{3-[4-(3-f{2-oxa-6-azaspiro[3.3]heptan-6-yl}azetidine-1-carbonyl)phenyl]-1,2-oxazol-5-yl}-1H-indazole], the IC50 was determined as 1.4 nM in test [1] and 290 nM in test [2].
Regarding `COCCOc1cc2[nH]nc(-c3cc(-c4ccc(C(=O)N5CCN(C6CCOCC6)CC5)cc4)no3)c2cc1F` [A188, 5-fluoro-6-(2-methoxyethoxy)-3-(3-{4-[4-(oxan-4-yl)piperazine-1-carbonyl]phenyl}-1,2-oxazol-5-yl)-1H-indazole], the results for the IC50 in test [1] and in test [2] were 0.61 nM and 34 nM, respectively.
For the compound `COCCOc1cc2[nH]nc(-c3cc(-c4ccc(C(=O)N5CCO[C@@H](C)C5)cc4)no3)c2cc1F` [A189, 5-fluoro-6-(2-methoxyethoxy)-3-(3-{4-[(2S)-2-methylmorpholine-4-carbonyl]phenyl}-1,2-oxazol-5-yl)-1H-indazole], the values for the IC50 in test [1] and in test [2] were 1.9 nM and 48 nM, respectively.
Consider `COCCOc1cc2[nH]nc(-c3cc(-c4ccc(C(=O)N5CCN(C6COC6)C[C@H]5C)cc4)no3)c2cc1F` [A190, 5-fluoro-6-(2-methoxyethoxy)-3-(3-{4-[(2R)-2-methyl-4-(oxetan-3-yl)piperazine-1-carbonyl]phenyl}-1,2-oxazol-5-yl)-1H-indazole], for which the IC50 was found to be 1.6 nM in test [1] and 55 nM in test [2].
For `COCCOc1cc2[nH]nc(-c3cc(-c4ccc(C(=O)N5CCN(C6COC6)C[C@@H]5C)cc4)no3)c2cc1F` [A191, 5-fluoro-6-(2-methoxyethoxy)-3-(3-{4-[(2S)-2-methyl-4-(oxetan-3-yl)piperazine-1-carbonyl]phenyl}-1,2-oxazol-5-yl)-1H-indazole], in that order: 1.8 nM and 58 nM.
As to `COCCOc1cc2[nH]nc(-c3cc(-c4ccc(C(=O)N5CC(c6cccnc6)C5)cc4)no3)c2cc1F` [A192, 5-fluoro-6-(2-methoxyethoxy)-3-(3-{4-[3-(pyridin-3-yl)azetidine-1-carbonyl]phenyl}-1,2-oxazol-5-yl)-1H-indazole], the IC50 in test [1] came out at 0.45 nM; in test [2] it was 14 nM.
In the case of `COCCOc1cc2[nH]nc(-c3cc(-c4ccc(C(=O)N5CCN(C6COC6)CC5)c(C)c4)no3)c2cc1F` [A193, (4-{5-[5-fluoro-6-(2-methoxy-ethoxy)-1H-indazol-3-yl]-isoxazol-3-yl}-2-methyl-phenyl)-(4-oxetan-3-yl-piperazin-1-yl)-methanone], the values for the IC50 in test [1] and in test [2] were 2.5 nM and 73 nM, respectively.
As to `COCCOc1cc2[nH]nc(-c3cc(-c4ccc(C(=O)N5CCN(C6COC6)CC5)cc4)no3)c2cc1Cl` [A194, (4-{5-[5-chloro-6-(2-methoxy-ethoxy)-1H-indazol-3-yl]-isoxazol-3-yl}-phenyl)-(4-oxetan-3-yl-piperazin-1-yl)-methanone], the IC50 in test [1] amounted to 0.78 nM; in test [2], 44 nM.
As to `COCCOc1cc2[nH]nc(-c3cc(-c4ccc(C(=O)N5CC(c6nncn6CCOC)C5)cc4)no3)c2cc1F` [A195, 5-fluoro-6-(2-methoxyethoxy)-3-[3-(4-{3-[4-(2-methoxyethyl)-4H-1,2,4-triazol-3-yl]azetidine-1-carbonyl}phenyl)-1,2-oxazol-5-yl]-1H-indazole], the IC50 in test [1] worked out at 14 nM; in test [2] it was 710 nM.
